Assay results published in ChEMBL document CHEMBL6127023, “3-Tetrazolyl-β-carboline derivatives as potential neuroprotective agents” (Bioorg Med Chem, 2024).
The source made the active and inactive calls. The calls are words filed in the database; no cut-off is given here.

Tests used:
SH-SY5Y [1] = assay: Neuroprotective effect in MPP+-induced cytotoxicity in human SH-SY5Y cells assessed as increase in neutral red dye uptake at 1 to 10 uM preincubated with 500 uM MPP+ for 30 mins followed by compound treatment for 24 hrs; assay type: functional, cell-based; conditions: dose 1-10 µM, time 24.5 hrs
SH-SY5Y [2] = assay: Cytotoxicity against human SH-SY5Y cells upto 10 uM incubated for 24 hrs; assay type: toxicity, cell-based
SH-SY5Y [3] = assay: Cytotoxicity against human SH-SY5Y cells assessed as decrease in resazurin dye upto 50 uM incubated for 24 hrs; assay type: toxicity, cell-based
SH-SY5Y [4] = assay: Cytotoxicity against human SH-SY5Y cells assessed as decrease in neutral red dye uptake at 50 uM incubated for 24 hrs relative to control; assay type: toxicity, cell-based; design: scale not given: the % may be the effect or the level left
SH-SY5Y [5] = assay: Cytotoxicity against human SH-SY5Y cells assessed as decrease in neutral red dye uptake at 25 uM incubated for 24 hrs relative to control; assay type: toxicity, cell-based; design: scale not given: the % may be the effect or the level left
SH-SY5Y [6] = assay: Neuroprotective effect in MPP+-induced cytotoxicity in human SH-SY5Y cells assessed as increase in neutral red dye uptake at 1 uM preincubated with 500 uM MPP+ for 30 mins followed by compound treatment for 24 hrs (reference value: 75 %); assay type: functional; conditions: time 24.5 hrs
SH-SY5Y [7] = assay: Neuroprotective effect in MPP+-induced cytotoxicity in human SH-SY5Y cells assessed as increase in neutral red dye uptake at 2.5 uM preincubated with 500 uM MPP+ for 30 mins followed by compound treatment for 24 hrs (reference value: 81.1 %); assay type: functional; conditions: time 24.5 hrs
SH-SY5Y [8] = assay: Neuroprotective effect in MPP+-induced cytotoxicity in human SH-SY5Y cells assessed as increase in neutral red dye uptake at 1 uM preincubated with 500 uM MPP+ for 30 mins followed by compound treatment for 24 hrs (reference value: 81.1 %); assay type: functional; conditions: time 24.5 hrs
SH-SY5Y [9] = assay: Neuroprotective effect in Fe3+-induced cytotoxicity in human SH-SY5Y cells assessed as increase in neutral red dye uptake at 1 to 10 uM preincubated with 500 to 1000 uM FeNTA for 30 mins followed by compound treatment for 24 hrs; assay type: functional, cell-based; conditions: dose 1-10 µM, time 24.5 hrs
SH-SY5Y [10] = assay: Neuroprotective effect in MPP+-induced cytotoxicity in human SH-SY5Y cells assessed as increase in neutral red dye uptake at 5 uM preincubated with 500 uM MPP+ for 30 mins followed by compound treatment for 24 hrs (reference value: 81.1 %); assay type: functional; conditions: time 24.5 hrs
SH-SY5Y [11] = assay: Neuroprotective effect in MPP+-induced cytotoxicity in human SH-SY5Y cells assessed as increase in neutral red dye uptake at 2.5 uM preincubated with 500 uM MPP+ for 30 mins followed by compound treatment for 24 hrs (reference value: 75 %); assay type: functional; conditions: time 24.5 hrs
SH-SY5Y [12] = assay: Neuroprotective effect in MPP+-induced cytotoxicity in human SH-SY5Y cells assessed as increase in neutral red dye uptake at 2.5 uM preincubated with 500 uM MPP+ for 30 mins followed by compound treatment for 24 hrs (reference value: 83.9 %); assay type: functional; conditions: time 24.5 hrs
SH-SY5Y [13] = assay: Cytotoxicity against human SH-SY5Y cells at 5 uM incubated for 24 hrs; assay type: toxicity, cell-based
SH-SY5Y [14] = assay: Cytotoxicity against human SH-SY5Y cells assessed as decrease in neutral red dye uptake at 10 uM incubated for 24 hrs relative to control; assay type: toxicity, cell-based; design: scale not given: the % may be the effect or the level left
SH-SY5Y [15] = assay: Neuroprotective effect in MPP+-induced cytotoxicity in human SH-SY5Y cells assessed as increase in neutral red dye uptake at 2.5 uM preincubated with 1000 uM MPP+ for 30 mins followed by compound treatment for 24 hrs (reference value: 76.2 %); assay type: functional; conditions: time 24.5 hrs
SH-SY5Y [16] = assay: Neuroprotective effect in Fe3+-induced cytotoxicity in human SH-SY5Y cells assessed as increase in neutral red dye uptake at 2.5 to 5 uM preincubated with 1000 uM FeNTA for 30 mins followed by compound treatment for 24 hrs; assay type: functional, cell-based; conditions: dose 2.5-5 µM, time 24.5 hrs
SH-SY5Y [17] = assay: Cytotoxicity against human SH-SY5Y cells assessed as decrease in resazurin dye at 50 uM incubated for 24 hrs relative to control; assay type: toxicity, cell-based; design: scale not given: the % may be the effect or the level left
SH-SY5Y [18] = assay: Neuroprotective effect in MPP+-induced cytotoxicity in human SH-SY5Y cells assessed as increase in neutral red dye uptake at 1 uM preincubated with 1000 uM MPP+ for 30 mins followed by compound treatment for 24 hrs (reference value: 76.2 %); assay type: functional; conditions: time 24.5 hrs
SH-SY5Y [19] = assay: Cytotoxicity against human SH-SY5Y cells assessed as decrease in resazurin dye at 10 uM incubated for 24 hrs relative to control; assay type: toxicity, cell-based; design: scale not given: the % may be the effect or the level left
SH-SY5Y [20] = assay: Neuroprotective effect in MPP+-induced cytotoxicity in human SH-SY5Y cells assessed as increase in neutral red dye uptake at 5 uM preincubated with 1000 uM MPP+ for 30 mins followed by compound treatment for 24 hrs (reference value: 76.2 %); assay type: functional; conditions: time 24.5 hrs
SH-SY5Y [21] = assay: Cytotoxicity against human SH-SY5Y cells assessed as decrease in resazurin dye at 25 uM incubated for 24 hrs relative to control; assay type: toxicity, cell-based; design: scale not given: the % may be the effect or the level left
SH-SY5Y [22] = assay: Induction of ROS production in human SH-SY5Y cells at 50 uM incubated for 24 hrs by DCFH-DA probe based analysis relative to control; assay type: functional
SH-SY5Y [23] = assay: Cytotoxicity against human SH-SY5Y cells assessed as decrease in neutral red dye uptake upto 50 uM incubated for 24 hrs; assay type: toxicity, cell-based
SH-SY5Y [24] = assay: Neuroprotective effect in Fe3+-induced cytotoxicity in human SH-SY5Y cells assessed as increase in neutral red dye uptake at 1 uM preincubated with 500 uM FeNTA for 30 mins followed by compound treatment for 24 hrs (reference value: 81.4 %); assay type: functional; conditions: time 24.5 hrs
SH-SY5Y [25] = assay: Neuroprotective effect in MPP+-induced cytotoxicity in human SH-SY5Y cells assessed as increase in neutral red dye uptake at 2.5 uM preincubated with 500 uM MPP+ for 30 mins followed by compound treatment for 24 hrs (reference value: 83.3 %); assay type: functional; conditions: time 24.5 hrs
SH-SY5Y [26] = assay: Neuroprotective effect in MPP+-induced cytotoxicity in human SH-SY5Y cells assessed as increase in neutral red dye uptake at 1 uM preincubated with 1000 uM MPP+ for 30 mins followed by compound treatment for 24 hrs (reference value: 75.8 %); assay type: functional; conditions: time 24.5 hrs
SH-SY5Y [27] = assay: Neuroprotective effect in MPP+-induced cytotoxicity in human SH-SY5Y cells assessed as increase in neutral red dye uptake at 1 uM preincubated with 500 uM MPP+ for 30 mins followed by compound treatment for 24 hrs (reference value: 83.3 %); assay type: functional; conditions: time 24.5 hrs
SH-SY5Y [28] = assay: Neuroprotective effect in MPP+-induced cytotoxicity in human SH-SY5Y cells assessed as increase in neutral red dye uptake at 5 uM preincubated with 500 uM MPP+ for 30 mins followed by compound treatment for 24 hrs (reference value: 83.3 %); assay type: functional; conditions: time 24.5 hrs
SH-SY5Y [29] = assay: Neuroprotective effect in MPP+-induced cytotoxicity in human SH-SY5Y cells assessed as increase in neutral red dye uptake at 2.5 uM preincubated with 1000 uM MPP+ for 30 mins followed by compound treatment for 24 hrs (reference value: 75.8 %); assay type: functional; conditions: time 24.5 hrs
SH-SY5Y [30] = assay: Neuroprotective effect in MPP+-induced cytotoxicity in human SH-SY5Y cells assessed as increase in neutral red dye uptake at 5 uM preincubated with 1000 uM MPP+ for 30 mins followed by compound treatment for 24 hrs (reference value: 75.8 %); assay type: functional; conditions: time 24.5 hrs

SMILES: Clc1ccccc1-c1nc(-c2nnnn2Cc2ccccc2)cc2c1[nH]c1ccccc12
- Activity (SH-SY5Y [1]): Active
- Activity (SH-SY5Y [2]): Non-Toxic
- Activity (SH-SY5Y [3]): Non-Toxic
- Activity (SH-SY5Y [4]): 81.7%
- Activity (SH-SY5Y [5]): 84%

SMILES: CN(C)c1ccc(-c2nc(-c3nnnn3Cc3ccccc3)cc3c2[nH]c2ccccc23)cc1
- Activity (SH-SY5Y [6]): 90.3%
- Activity (SH-SY5Y [7]): 92.3%
- Activity (SH-SY5Y [8]): 97.8%
- Activity (SH-SY5Y [9]): inactive
- Activity (SH-SY5Y [2]): Non-Toxic
- Activity (SH-SY5Y [4]): 80.5%
- Activity (SH-SY5Y [10]): 85.8%
- Activity (SH-SY5Y [11]): 83.6%

SMILES: Fc1ccc(-c2nc(-c3nnnn3Cc3ccccc3)cc3c2[nH]c2ccccc23)cc1
- Activity (SH-SY5Y [12]): 91.4%
- Activity (SH-SY5Y [13]): Non-Toxic
- Activity (SH-SY5Y [14]): 83.6%
- Activity (SH-SY5Y [15]): 83.4%
- Activity (SH-SY5Y [16]): Active
- Activity (SH-SY5Y [17]): 48.5%
- Activity (SH-SY5Y [18]): 84.8%
- Activity (SH-SY5Y [19]): 80%
- Activity (SH-SY5Y [20]): 83.2%
- Activity (SH-SY5Y [21]): 62.2%
- Activity (SH-SY5Y [4]): 56.1%
- Activity (SH-SY5Y [22]): 108.2%
- Activity (SH-SY5Y [5]): 70.5%

SMILES: O=[N+]([O-])c1cccc(-c2nc(-c3nnnn3Cc3ccccc3)cc3c2[nH]c2ccccc23)c1
- Activity (SH-SY5Y [17]): 92.6%
- Activity (SH-SY5Y [1]): inactive
- Activity (SH-SY5Y [2]): Non-Toxic
- Activity (SH-SY5Y [23]): Non-Toxic

SMILES: c1ccc(Cn2nnnc2-c2cc3c([nH]c4ccccc43)c(-c3ccccc3)n2)cc1
- Activity (SH-SY5Y [13]): Non-Toxic
- Activity (SH-SY5Y [14]): 85.6%
- Activity (SH-SY5Y [24]): 87.6%
- Activity (SH-SY5Y [25]): 92.1%
- Activity (SH-SY5Y [17]): 59.3%
- Activity (SH-SY5Y [26]): 87.1%
- Activity (SH-SY5Y [21]): 74%
- Activity (SH-SY5Y [27]): 91.4%
- Activity (SH-SY5Y [28]): 93.5%
- Activity (SH-SY5Y [29]): 84.6%
- Activity (SH-SY5Y [30]): 89.1%
- Activity (SH-SY5Y [4]): 65.9%
- Activity (SH-SY5Y [5]): 81.3%
